These results are taken from ChEMBL document CHEMBL5154811, “Discovery of SPH5030, a Selective, Potent, and Irreversible Tyrosine Kinase Inhibitor for HER2-Amplified and HER2-Mutant Cancer Treatment” (J Med Chem, 2022).

For test [1], the target named is T1, Receptor tyrosine-protein kinase erbB-2 (Homo sapiens, UniProt P04626). Description: Inhibition of wild type human GST-tagged HER2 (676 to end residues) expressed in baculovirus infected Sf9 cells incubated for 30 mins in presence of ATP by HTRF analysis.
T1 sequence (P04626 whole entry): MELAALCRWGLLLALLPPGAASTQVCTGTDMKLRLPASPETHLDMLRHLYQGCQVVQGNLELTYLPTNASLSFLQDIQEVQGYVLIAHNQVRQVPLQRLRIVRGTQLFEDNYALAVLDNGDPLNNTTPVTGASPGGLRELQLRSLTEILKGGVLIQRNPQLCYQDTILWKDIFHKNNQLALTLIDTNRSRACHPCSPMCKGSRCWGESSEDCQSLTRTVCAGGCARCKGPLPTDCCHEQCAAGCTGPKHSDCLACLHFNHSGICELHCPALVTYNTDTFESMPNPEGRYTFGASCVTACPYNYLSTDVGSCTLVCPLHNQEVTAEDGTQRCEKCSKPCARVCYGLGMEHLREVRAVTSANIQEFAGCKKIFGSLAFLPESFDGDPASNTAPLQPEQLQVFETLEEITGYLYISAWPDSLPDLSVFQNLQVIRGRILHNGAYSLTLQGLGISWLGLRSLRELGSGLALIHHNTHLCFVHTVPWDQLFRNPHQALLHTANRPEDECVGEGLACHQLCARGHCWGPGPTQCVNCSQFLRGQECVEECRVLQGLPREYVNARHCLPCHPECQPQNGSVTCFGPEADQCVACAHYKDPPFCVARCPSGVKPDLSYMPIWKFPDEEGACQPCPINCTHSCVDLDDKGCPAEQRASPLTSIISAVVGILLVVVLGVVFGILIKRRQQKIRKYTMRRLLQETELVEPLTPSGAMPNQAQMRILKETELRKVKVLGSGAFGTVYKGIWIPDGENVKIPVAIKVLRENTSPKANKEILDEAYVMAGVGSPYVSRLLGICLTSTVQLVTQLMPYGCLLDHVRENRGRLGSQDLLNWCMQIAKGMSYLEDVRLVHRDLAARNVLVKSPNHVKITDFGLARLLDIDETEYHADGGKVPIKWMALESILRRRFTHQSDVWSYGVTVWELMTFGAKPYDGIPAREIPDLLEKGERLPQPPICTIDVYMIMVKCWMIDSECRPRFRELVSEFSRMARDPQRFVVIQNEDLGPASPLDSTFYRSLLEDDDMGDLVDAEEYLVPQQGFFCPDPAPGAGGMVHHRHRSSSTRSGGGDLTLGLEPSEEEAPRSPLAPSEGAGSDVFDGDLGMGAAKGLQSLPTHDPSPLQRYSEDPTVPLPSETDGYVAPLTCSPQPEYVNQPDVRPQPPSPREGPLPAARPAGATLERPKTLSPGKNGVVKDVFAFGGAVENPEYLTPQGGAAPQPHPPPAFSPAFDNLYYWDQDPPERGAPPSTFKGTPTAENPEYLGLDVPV
Test [2] relates to NCI-N87. Description: Antitumor activity against human NCI-N87 cells xenografted in BALB/c nude mouse assessed as tumor growth inhibition at 20 mg/kg/day, po administered once daily for 21 days relative to control. In kind it is functional. Particulars: NCI-N87, 504 h, time 21 day, read-out: TGI.
Test [3] in a line: Antiproliferative activity against human KM12-Luc cells assessed as cell growth inhibition incubated for 72 hrs by Celltiter-Glo assay. It is filed as functional, cell-based.
In the next test the test system is SK-BR-3. Description: Antiproliferative activity against human SK-BR-3 cells overexpressing wild type HER2 assessed as cell growth inhibition incubated for 72 hrs by Celltiter-Glo assay. In kind it is functional, cell-based. The note with it: SK-BR-3, 72 h.
For test [4], the target named is Receptor tyrosine-protein kinase erbB-2 (Homo sapiens, UniProt P04626, R896C). The test can be described thus: Inhibition of HER2 R896C mutant (unknown origin) incubated for 120 mins in presence of 33P-ATP by P81 ion exchange cellulose chromatography.
Chain of Receptor tyrosine-protein kinase erbB-2 (Homo sapiens, UniProt P04626, R896C) (P04626 23-1255 R896C limits assumed): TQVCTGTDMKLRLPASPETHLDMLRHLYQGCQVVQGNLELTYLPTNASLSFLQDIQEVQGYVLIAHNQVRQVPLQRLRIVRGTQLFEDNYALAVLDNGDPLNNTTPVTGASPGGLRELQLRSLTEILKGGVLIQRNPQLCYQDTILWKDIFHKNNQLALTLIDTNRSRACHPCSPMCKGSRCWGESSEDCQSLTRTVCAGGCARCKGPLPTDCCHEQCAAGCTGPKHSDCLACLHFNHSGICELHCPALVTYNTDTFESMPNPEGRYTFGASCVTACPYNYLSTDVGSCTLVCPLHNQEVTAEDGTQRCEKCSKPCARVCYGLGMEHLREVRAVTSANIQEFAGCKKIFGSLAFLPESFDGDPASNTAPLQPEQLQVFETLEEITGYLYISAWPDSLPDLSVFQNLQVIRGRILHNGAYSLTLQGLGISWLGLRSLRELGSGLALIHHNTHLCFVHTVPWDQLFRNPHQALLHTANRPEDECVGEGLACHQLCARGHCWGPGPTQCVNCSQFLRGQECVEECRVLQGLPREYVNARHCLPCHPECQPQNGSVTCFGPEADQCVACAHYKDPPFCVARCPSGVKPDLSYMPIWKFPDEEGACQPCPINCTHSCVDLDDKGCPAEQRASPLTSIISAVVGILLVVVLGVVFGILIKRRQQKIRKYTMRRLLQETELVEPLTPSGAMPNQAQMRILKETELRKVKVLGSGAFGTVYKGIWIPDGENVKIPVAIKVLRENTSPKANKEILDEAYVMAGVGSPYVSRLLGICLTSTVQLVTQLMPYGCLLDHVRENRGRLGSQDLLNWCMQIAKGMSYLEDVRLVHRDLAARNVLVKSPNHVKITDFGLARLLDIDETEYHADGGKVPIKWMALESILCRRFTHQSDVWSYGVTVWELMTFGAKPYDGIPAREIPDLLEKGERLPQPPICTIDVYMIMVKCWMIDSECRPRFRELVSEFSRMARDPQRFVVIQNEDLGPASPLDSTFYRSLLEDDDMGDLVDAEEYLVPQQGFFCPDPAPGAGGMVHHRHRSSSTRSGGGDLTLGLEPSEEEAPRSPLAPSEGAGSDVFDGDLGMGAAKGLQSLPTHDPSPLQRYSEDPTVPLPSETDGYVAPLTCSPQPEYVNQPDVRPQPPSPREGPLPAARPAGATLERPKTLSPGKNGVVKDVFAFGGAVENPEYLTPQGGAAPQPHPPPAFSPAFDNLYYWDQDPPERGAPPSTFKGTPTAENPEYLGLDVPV
In test [5] the test system is BaF3. The test can be described thus: Antiproliferative activity against mouse BaF3 cells harbouring HER2 […] mutant assessed as inhibition of cell growth incubated for 72 hrs by Celltiter-Glo assay. The note with it: BaF3, 72 h. It is filed as functional, cell-based.
The subject of a further test is NCI-H441. The test can be described thus: Antiproliferative activity against human NCI-H441 cells assessed as cell growth inhibition incubated for 72 hrs by Celltiter-Glo assay. In kind it is functional, cell-based. Particulars: NCI-H441, 72 h.
Test [6] concerns NCI-N87. The test can be described thus: Antiproliferative activity against human NCI-N87 cells assessed as inhibition of cell growth incubated for 72 hrs by Celltiter-Glo assay. It is filed as functional, cell-based. Particulars: NCI-N87, 72 h.
The target of test [7] is Receptor tyrosine-protein kinase erbB-2 (Homo sapiens, UniProt P04626, V777L). Description: Inhibition of HER2 V777L mutant (unknown origin) incubated for 120 mins in presence of 33P-ATP by P81 ion exchange cellulose chromatography.
A further test deals with MFE-280. The test can be described thus: Antiproliferative activity against human MFE-280 cells assessed as cell growth inhibition incubated for 72 hrs by Celltiter-Glo assay. It is filed as functional, cell-based. Particulars: MFE-280, 72 h.
The subject of test [8] is BaF3. The test can be described thus: Antitumor activity against mouse BaF3 cells harbouring HER2 A775_G776insYVMA mutant xenografted in BALB/c nude mouse assessed as tumor growth inhibition at 20 mg/kg, po qd measured for 13 days relative to control. It is filed as functional. The note with it: BaF3, 312 h, time 13 day, read-out: TGI.
In test [9] the test system is BT-474. Description: Antitumor activity against human BT-474 cells xenografted in BALB/c nude mouse assessed as tumor growth inhibition at 20 mg/kg/day, po administered once daily for 21 days relative to control. In kind it is functional. Particulars: BT-474, 504 h, time 21 day, read-out: TGI.
Another test concerns COLO-678. The test can be described thus: Antiproliferative activity against human COLO-678 cells assessed as cell growth inhibition incubated for 72 hrs by Celltiter-Glo assay. In kind it is functional, cell-based. The note with it: COLO-678, 72 h.
In test [10] the target is Receptor tyrosine-protein kinase erbB-2 (Homo sapiens, UniProt P04626, D769H). The test can be described thus: Inhibition of HER2 D769H mutant (unknown origin) incubated for 120 mins in presence of 33P-ATP by P81 ion exchange cellulose chromatography.
Chain of Receptor tyrosine-protein kinase erbB-2 (Homo sapiens, UniProt P04626, D769H) (P04626 23-1255 D769H limits assumed): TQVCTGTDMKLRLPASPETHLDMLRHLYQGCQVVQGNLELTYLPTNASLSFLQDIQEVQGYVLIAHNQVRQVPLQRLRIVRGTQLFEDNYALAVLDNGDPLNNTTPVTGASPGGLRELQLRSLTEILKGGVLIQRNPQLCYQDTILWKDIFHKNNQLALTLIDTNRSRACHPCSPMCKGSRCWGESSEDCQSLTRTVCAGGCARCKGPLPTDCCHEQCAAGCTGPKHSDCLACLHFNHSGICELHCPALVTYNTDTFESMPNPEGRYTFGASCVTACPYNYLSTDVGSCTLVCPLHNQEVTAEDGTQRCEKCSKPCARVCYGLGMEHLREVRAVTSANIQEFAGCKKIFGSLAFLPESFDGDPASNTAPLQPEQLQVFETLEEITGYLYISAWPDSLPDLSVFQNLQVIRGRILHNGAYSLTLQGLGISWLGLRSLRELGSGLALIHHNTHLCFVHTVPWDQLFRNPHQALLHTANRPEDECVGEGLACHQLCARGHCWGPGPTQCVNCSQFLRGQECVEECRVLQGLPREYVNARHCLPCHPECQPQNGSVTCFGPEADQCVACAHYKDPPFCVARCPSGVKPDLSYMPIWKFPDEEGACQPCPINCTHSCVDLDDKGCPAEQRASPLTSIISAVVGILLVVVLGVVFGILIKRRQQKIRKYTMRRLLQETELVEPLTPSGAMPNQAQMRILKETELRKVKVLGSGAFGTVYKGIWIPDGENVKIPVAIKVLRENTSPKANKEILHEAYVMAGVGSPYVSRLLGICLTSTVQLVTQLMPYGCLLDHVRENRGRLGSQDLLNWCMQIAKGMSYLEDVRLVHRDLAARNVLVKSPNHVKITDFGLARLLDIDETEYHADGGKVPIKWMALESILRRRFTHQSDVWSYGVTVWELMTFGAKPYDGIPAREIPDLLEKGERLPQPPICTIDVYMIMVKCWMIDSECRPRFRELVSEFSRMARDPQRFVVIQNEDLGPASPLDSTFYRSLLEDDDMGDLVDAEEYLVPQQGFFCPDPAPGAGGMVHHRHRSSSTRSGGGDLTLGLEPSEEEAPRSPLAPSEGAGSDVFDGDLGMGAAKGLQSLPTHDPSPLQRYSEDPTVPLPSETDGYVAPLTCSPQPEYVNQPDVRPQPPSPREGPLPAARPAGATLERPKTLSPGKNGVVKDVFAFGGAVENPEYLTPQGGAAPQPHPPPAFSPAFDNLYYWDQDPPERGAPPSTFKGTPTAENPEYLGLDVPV
The next test relates to MDA-MB-468. The test can be described thus: Antiproliferative activity against human MDA-MB-468 cells overexpressing wild type EGFR assessed as cell growth inhibition incubated for 72 hrs by Celltiter-Glo assay. In kind it is functional, cell-based. The note with it: MDA-MB-468, 72 h.
In test [11] the target is Receptor tyrosine-protein kinase erbB-2 (Homo sapiens, UniProt P04626, D769Y). Description: Inhibition of HER2 D769Y mutant (unknown origin) incubated for 120 mins in presence of 33P-ATP by P81 ion exchange cellulose chromatography.
Chain of Receptor tyrosine-protein kinase erbB-2 (Homo sapiens, UniProt P04626, D769Y) (P04626 23-1255 D769Y limits assumed): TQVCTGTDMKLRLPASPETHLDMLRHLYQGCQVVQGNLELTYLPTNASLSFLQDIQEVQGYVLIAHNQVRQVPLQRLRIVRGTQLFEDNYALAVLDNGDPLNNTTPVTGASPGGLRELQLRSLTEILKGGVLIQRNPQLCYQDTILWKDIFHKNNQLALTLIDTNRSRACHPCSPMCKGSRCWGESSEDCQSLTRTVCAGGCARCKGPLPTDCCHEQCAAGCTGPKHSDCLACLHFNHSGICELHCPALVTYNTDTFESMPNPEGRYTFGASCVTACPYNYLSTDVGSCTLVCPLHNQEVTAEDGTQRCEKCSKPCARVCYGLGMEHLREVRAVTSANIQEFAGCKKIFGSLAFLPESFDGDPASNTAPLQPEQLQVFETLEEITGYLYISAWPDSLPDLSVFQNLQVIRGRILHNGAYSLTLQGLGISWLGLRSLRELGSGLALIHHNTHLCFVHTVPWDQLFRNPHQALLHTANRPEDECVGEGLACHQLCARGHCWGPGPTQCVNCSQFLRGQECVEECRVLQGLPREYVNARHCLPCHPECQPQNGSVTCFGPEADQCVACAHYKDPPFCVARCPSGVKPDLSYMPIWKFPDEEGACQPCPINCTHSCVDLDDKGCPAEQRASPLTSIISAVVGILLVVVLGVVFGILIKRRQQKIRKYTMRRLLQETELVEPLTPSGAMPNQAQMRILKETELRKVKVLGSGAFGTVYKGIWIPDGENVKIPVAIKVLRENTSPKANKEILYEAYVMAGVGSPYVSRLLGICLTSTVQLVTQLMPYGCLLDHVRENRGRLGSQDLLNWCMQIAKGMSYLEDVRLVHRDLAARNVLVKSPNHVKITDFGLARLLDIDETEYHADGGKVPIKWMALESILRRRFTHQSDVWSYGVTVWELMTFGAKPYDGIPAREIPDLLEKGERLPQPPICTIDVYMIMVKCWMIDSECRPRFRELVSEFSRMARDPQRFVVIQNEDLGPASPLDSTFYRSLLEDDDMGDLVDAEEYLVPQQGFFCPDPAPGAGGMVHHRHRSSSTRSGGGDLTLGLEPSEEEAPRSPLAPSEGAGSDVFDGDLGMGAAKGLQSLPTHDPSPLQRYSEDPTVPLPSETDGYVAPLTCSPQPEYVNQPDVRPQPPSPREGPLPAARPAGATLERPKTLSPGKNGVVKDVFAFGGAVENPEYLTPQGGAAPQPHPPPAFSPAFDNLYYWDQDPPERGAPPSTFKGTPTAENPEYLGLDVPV
Another test concerns ES-2. The test can be described thus: Antiproliferative activity against human ES2 cells assessed as cell growth inhibition incubated for 72 hrs by Celltiter-Glo assay. It is filed as functional, cell-based. The note with it: ES-2, 72 h.
For a further test, the system named is NUGC-4. Description: Antiproliferative activity against human NUGC-4 cells assessed as cell growth inhibition incubated for 72 hrs by Celltiter-Glo assay. It is filed as functional, cell-based. Particulars: NUGC-4, 72 h.
The subject of test [12] is BT-474. Description: Antiproliferative activity against human BT-474 cells assessed as inhibition of cell growth incubated for 72 hrs by Celltiter-Glo assay. Particulars: BT-474, 72 h. It is filed as functional, cell-based.
Test [13] deals with T1, Receptor tyrosine-protein kinase erbB-2. Description: Inhibition of HER2 (unknown origin).
The target in test [14] is Epidermal growth factor receptor (Homo sapiens, UniProt P00533). Description: Inhibition of EGFR (unknown origin).

As for `CCOc1cc2ncc(C#N)c(Nc3ccc(OCc4ccccn4)c(Cl)c3)c2cc1NC(=O)/C=C/[C@H]1CCCN1C` [PYROTINIB], the IC50 in test [1] was 9.07 nM; in test [3] it was 1690 nM; in the test on SK-BR-3, 14 nM; in [4], 2.4 nM; with BaF3 [5], 15 nM; with NCI-H441, 1890 nM. Besides, the IC50 in the test with NCI-N87 [6] worked out at 0.85 nM; in [7], 3.91 nM; with MFE-280, 1560 nM; with COLO-678, 1840 nM; in test [10] it was 6.65 nM; in the test with MDA-MB-468, 659 nM. In addition, the IC50 in test [11] was 57.4 nM; with ES-2 it was 778 nM; with NUGC-4, 60.8 nM; in the test on BT-474 [12], 3.97 nM; in test [13] it was 4.43 nM. Moreover, the inhibition in vivo at 20 mg/kg/day in the test on NCI-N87 [2] came out at 113%; in the test on BT-474 [9], 118%. The inhibition in vivo at 20 mg/kg with BaF3 [8] stood at 55%.

On to `CCOc1cc2ncc(C#N)c(Nc3ccc(OCc4ccccn4)c(Cl)c3)c2cc1NC(=O)/C=C/CN(C)C` [NERATINIB], for which the inhibition in vivo at 20 mg/kg/day in the test on NCI-N87 [2] was determined as 112%; with BT-474 [9] it was 119%. The IC50 in test [3] was determined as 1730 nM; with SK-BR-3, 10.3 nM; in the test with NCI-H441, 1280 nM; in the test with NCI-N87 [6], 0.64 nM; in the test on MFE-280, 1290 nM; in the test on COLO-678 it was 694 nM. The IC50 in the test on MDA-MB-468 was found to be 406 nM; in the test with ES-2 it was 788 nM; in the test on NUGC-4, 38.1 nM; in the test with BT-474 [12] it was 2.06 nM. For the same compound, the inhibition in vivo at 20 mg/kg in the test with BaF3 [8] worked out at 56%.

Regarding `Cc1cc(Nc2ncnc3ccc(NC4=NC(C)(C)CO4)cc23)ccc1Oc1ccn2ncnc2c1` [TUCATINIB], the IC50 came to 449 nM in [14] and 6.9 nM in [13].
